Reference: patent US7740835B2, “Anaerobic bacterium as a drug for cancer gene therapy” (Anaeropharma Science Inc., priority 2000, dated 2010)

Tested on: Lewis lung cancer cells
Experiment: Growth of B. longum in tumor tissues by administering lacturose
Format: in vivo, mice
Details: B. longum 105-A administered; 1 ml of 20 t lacturose solution intraperitoneally for 8 successive days; analysed on the 9th day
From the text: Lacturose (provided by Nikken Chemicals Co., Ltd.) is a synthetic saccharide not occurring in nature, and it is known that lacturose cannot be metabolized by humans, mice and pigs (Biochem. Biophys. Acta, 110, 635 (1965), Pediatrics, 32, 1033 (1963), Gastroenterology, 47, 26 (1964), Die Nahrung, 11, 39 (1967)). On the other hand, B. longum is capable of growing with lacturose as a carbon source.
As a result, the number of B. longum bacteria present of the tumor tissues in the tumor-bearing mouse group given lacturose was 200-times as more as that of the control group not given lacturose.

For `OC[C@H]1O[C@@H](O[C@@H]2[C@@H](CO)OC(O)(CO)[C@H]2O)[C@H](O)[C@@H](O)[C@H]1O` (stereo partly drawn) [lacturose, 4-0-β-D-galactopyranosyl-D-fructofuranose], the “number of B. longum bacteria in tumor tissues of the group given lacturose relative to the control group not given lacturose” value was 200 times.
